This passage reports EC50 results from patent US12673954B2 (BRISTOL-MYERS SQUIBB COMPANY, priority 2021, dated 2026).

For experiment [1], the system named is NF-κB pathway, THP1-Dual™ cells. Nature of the experiment: STING reporter assay in THP1-Dual cells, NF-κB pathway (SEAP, QUANTI-Blue). Type of experiment: cell-based, human. The note with it: Homo sapiens, THP1-Dual, 20 h, read-out: NFkB (EC50 μM). In outline: (§1)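 Activation normalised between DMSO-only baseline and 100 μM cGAMP maximum, after 20 h compound exposure (starting at 100 μM final) at 37° C, 5% CO2. Supernatant SEAP (QUANTI-Blue, OD620) reports NF-κB; secreted luciferase (QUANTI-Luc, RLU at 5 min) reports IRF.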

Experiment [2] deals with IRF pathway, THP1-Dual™ cells. As to the kind of experiment: STING reporter assay in THP1-Dual cells, IRF pathway (Lucia luciferase, QUANTI-Luc). Type of experiment: cell-based, human. The settings on record: Homo sapiens, THP1-Dual, 20 h, read-out: IRF (EC50 μM). The method, boiled down: as §1
Setting [3] is: THP1-Dual cells, 10% human plasma, 20 hours, SEAP, 100% activation = 100 μM cGAMP.
The mark [4] stands for this setting: THP1-Dual cells, 10% human plasma, 20 hours, Lucia luciferase, 100% activation = 100 μM cGAMP.

Where two headings read alike, the source gives them in different places.

`O=C(OCCOCCO)c1cc(Cl)cc2cc(CNC(=O)c3cnn4cccnc34)oc12` [EXAMPLE 249, 2-(2-Hydroxyethoxy)ethy1 5-chloro-2-((pyrazolo[1,5-a]pyrimidine-3-carboxamido)methyl)benzofuran-7-carboxylate]: the figures for the half-maximal effective concentration (EC50) in experiment [1] (setting [3]) and in experiment [2] (setting [4]) were 2.5 µM and 2.4 µM, respectively.

In the case of `O=C(OCCCCO)c1cc(Cl)cc2cc(CNC(=O)c3cnn4cccnc34)oc12` [EXAMPLE 250, 4-Hydroxybutyl 5-chloro-2-((pyrazolo[1,5-a]pyrimidine-3-carboxamido)methyl)benzofuran-7-carboxylate], the EC50 in experiment [1] (setting [3]) amounted to 0.62 µM; in experiment [2] (setting [4]), 1.2 µM.

With `O=C(OCC(F)(F)C(F)(F)CO)c1cc(Cl)cc2cc(CNC(=O)c3cnn4cccnc34)oc12` [EXAMPLE 251, 2,2,3,3-Tetrafluoro-4-hydroxybutyl 5-chloro-2-((pyrazolo[1,5-a]pyrimidine-3-carboxamido)methyl)benzofuran-7-carboxylate], the half-maximal effective concentration (EC50) was 1 µM in experiment [1] (setting [3]) and 0.93 µM in experiment [2] (setting [4]).

Take `O=C(OCc1cccc(CO)c1)c1cc(Cl)cc2cc(CNC(=O)c3cnn4cccnc34)oc12` [EXAMPLE 252, 3-(Hydroxymethyl)benzyl 5-chloro-2-((pyrazolo[1,5-a]pyrimidine-3-carboxamido)methyl)benzofuran-7-carboxylate]: the EC50 was determined as 5.4 µM in experiment [1] (setting [3]) and 6.4 µM in experiment [2] (setting [4]).

For `O=C(OCC(F)(F)C(F)(F)C(F)(F)CO)c1cc(Cl)cc2cc(CNC(=O)c3cnn4cccnc34)oc12` [EXAMPLE 253, 2,2,3,3,4,4-Hexafluoro-5-hydroxypentyl 5-chloro-2-((pyrazolo[1,5-a]pyrimidine-3-carboxamido)methyl)benzofuran-7-carboxylate], the EC50 in experiment [1] stood at 0.93 µM; in experiment [2], 0.96 µM.

Take `O=C(Oc1ccccc1)c1cc(Cl)cc2cc(CNC(=O)c3cnn4cccnc34)oc12` [EXAMPLE 254, Phenyl 5-chloro-2-((pyrazolo[1,5-a]pyrimidine-3-carboxamido)methyl)benzofuran-7-carboxylate]: the values for the EC50 in experiment [1] (setting [3]) and in experiment [2] (setting [4]) were 0.88 µM and 0.87 µM, respectively.

Consider `O=C(OCCN1CCOCC1)c1cc(Cl)cc2cc(CNC(=O)c3cnn4cccnc34)oc12` [EXAMPLE 255, 2-Morpholinoethyl 5-chloro-2-((pyrazolo[1,5-a]pyrimidine-3-carboxamido)methyl)benzofuran-7-carboxylate], for which the results for the concentration giving a half-maximal response (EC50) in experiment [1] (setting [3]) and in experiment [2] (setting [4]) were 19 µM and 13 µM, respectively.

In the case of `O=C(OCCCN1CCOCC1)c1cc(Cl)cc2cc(CNC(=O)c3cnn4cccnc34)oc12` [EXAMPLE 256, 3-Morpholinopropyl 5-chloro-2-((pyrazolo[1,5-a]pyrimidine-3-carboxamido)methyl)benzofuran-7-carboxylate], the concentration giving a half-maximal response (EC50) in experiment [1] (setting [3]) stood at 4.8 µM; in experiment [2] (setting [4]) it was 6.7 µM.

With `CN1CCN(CCOC(=O)c2cc(Cl)cc3cc(CNC(=O)c4cnn5cccnc45)oc23)CC1` [EXAMPLE 257, 2-(4-Methylpiperazin-1-yl)ethyl 5-chloro-2-((pyrazolo[1,5-a]pyrimidine-3-carboxamido)methyl)benzofuran-7-carboxylate], the EC50 in experiment [1] (setting [3]) was determined as 11 µM; in experiment [2] (setting [4]), 28 µM.

In the case of `COCCOCCOC(=O)c1cc(Cl)cc2cc(CNC(=O)c3cnn4cccnc34)oc12` [EXAMPLE 258, 2-(2-Methoxyethoxy)ethyl 5-chloro-2-((pyrazolo[1,5-a]pyrimidine-3-carboxamido)methyl)benzofuran-7-carboxylate], the figures for the EC50 in experiment [1] (setting [3]) and in experiment [2] (setting [4]) were 3.5 µM and 3 µM, respectively.

As for `CC(=O)OCOC(=O)c1cc(Cl)cc2cc(CNC(=O)c3cnn4cccnc34)oc12` [EXAMPLE 259, Acetoxymethyl 5-chloro-2-((13yrazole[1,5-a]pyrimidine-3-carboxamido)methyl)benzofuran-7-carboxylate], the EC50 was 2.2 µM in experiment [1] (setting [3]) and 2.3 µM in experiment [2] (setting [4]).

Regarding `CCOC(=O)OCOC(=O)c1cc(Cl)cc2cc(CNC(=O)c3cnn4cccnc34)oc12` [EXAMPLE 260, ((Ethoxycarbonyl)oxy)methyl 5-chloro-2-((pyrazolo[1,5-a]pyrimidine-3-carboxamido)methyl)benzofuran-7-carboxylate], the EC50 is 0.82 µM in experiment [1] (setting [3]) and 1 µM in experiment [2] (setting [4]).

Consider `CC(C)OC(=O)c1cc(Cl)cc2cc(Cn3cnc4ccncc4c3=O)oc12` [EXAMPLE 262, Isopropyl 5-chloro-2-((4-oxopyrido[4,3-d]pyrimidin-3(4H)-yl)methyl)benzofuran-7-carboxylate], for which the 50% effective concentration (EC50) in experiment [1] (setting [3]) turned out to be 18 µM; in experiment [2] (setting [4]), 14 µM.

Regarding `CCOc1ncncc1C(=O)NCc1cc2cc(Cl)cc(C(=O)O[C@H](C)C(F)(F)F)c2o1` [EXAMPLE 263, (R)-1,1,1-trifluoropropan-2-yl 5-chloro-2-((4-ethoxypyrimidine-5-carboxamido)methyl)benzofuran-7-carboxylate], the EC50 in experiment [1] (setting [3]) was determined as 5.2 µM; in experiment [2] (setting [4]), 4.8 µM.

Regarding `O=C(NCc1cc2cc(Cl)cc(C(=O)OCC(F)(F)F)c2o1)c1cncc2[nH]cnc12` [EXAMPLE 264, 2,2,2-Trifluoroethyl 2-((3H-imidazo[4,5-c]pyridine-7-carboxamido)methyl)-5-chlorobenzofuran-7-carboxylate], the EC50 in experiment [1] (setting [3]) and in experiment [2] (setting [4]) was 1.7 µM each time.

`C[C@@H](OC(=O)c1cc(Cl)cc2cc(CNC(=O)c3cncc4[nH]cnc34)oc12)C(F)(F)F` [EXAMPLE 265, (R)-1,1,1-Trifluoropropan-2-yl 2-((3H-imidazo[4,5-c]pyridine-7-carboxamido)methyl)-5-chlorobenzofuran-7-carboxylate]: the EC50 is 0.82 µM in experiment [1] (setting [3]) and 0.84 µM in experiment [2] (setting [4]).

On to `C[C@H](NC(=O)c1cnn2cccnc12)c1cc2cc(Cl)cc(C(=O)OCC(F)(F)F)c2o1` [EXAMPLE 266, 2,2,2-Trifluoroethyl (S)-5-chloro-2-(1-(pyrazolo[1,5-a]pyrimidine-3-carboxamido)ethyl)benzofuran-7-carboxylate], for which the EC50 in experiment [1] (setting [3]) is 2.6 µM; in experiment [2] (setting [4]), 3.1 µM.

Regarding `C[C@H](NC(=O)c1cnn2cccnc12)c1cc2cc(Cl)cc(C(=O)OC3CC(F)(F)C3)c2o1` [EXAMPLE 267, 3,3-Difluorocyclobutyl (S)-5-chloro-2-(1-(pyrazolo[1,5-a]pyrimidine-3-carboxamido)ethyl)benzofuran-7-carboxylate], the EC50 in experiment [1] (setting [3]) worked out at 6.6 µM; in experiment [2] (setting [4]) it was 5.8 µM.

Consider `C[C@H](NC(=O)c1cnn2cccnc12)c1cc2cc(Cl)cc(C(=O)O[C@H](C)C(F)(F)F)c2o1` [EXAMPLE 268, (R)-1,1,1-Trifluoropropan-2-yl 5-chloro-2-((S)-1-(pyrazolo[1,5-a]pyrimidine-3-carboxamido)ethyl)benzofuran-7-carboxylate], for which the EC50 is 5.6 µM in experiment [1] (setting [3]) and 6.1 µM in experiment [2] (setting [4]).

Regarding `O=C(OCC(F)(F)F)c1cc(Br)cc2cc(CNC(=O)c3cnn4cccnc34)oc12` [EXAMPLE 269, 2,2,2-Trifluoroethyl 5-bromo-2-((pyrazolo[1,5-a]pyrimidine-3-carboxamido)methyl)benzofuran-7-carboxylate], the 50% effective concentration (EC50) in experiment [1] (setting [3]) and in experiment [2] (setting [4]) was 1.1 µM throughout.

With `O=C(Cc1cc(Br)cc2cc(CNC(=O)c3cnn4cccnc34)oc12)OCC(F)(F)F` [EXAMPLE 270, 2,2,2-Trifluoroethyl 2-(5-bromo-2-((pyrazolo[1,5-a]pyrimidine-3-carboxamido)methyl)benzofuran-7-yl)acetate], the EC50 in experiment [1] (setting [3]) amounted to 36 µM; in experiment [2] (setting [4]), 30 µM.

With `Cc1cc(C(=O)O[C@H](C)C(F)(F)F)c2oc(CNC(=O)c3cnn4cccnc34)cc2c1` [EXAMPLE 271, (R)-1,1,1-Trifluoropropan-2-yl 5-methyl-2-((pyrazolo[1,5-a]pyrimidine-3-carboxamido)methyl)-benzofuran-7-carboxylate], the results for the EC50 in experiment [1] (setting [3]) and in experiment [2] (setting [4]) were 0.91 µM and 0.8 µM, respectively.

`Cc1cc(C(=O)O[C@@H](C)C(F)(F)F)c2oc(CNC(=O)c3cnn4cccnc34)cc2c1` [EXAMPLE 272, (S)-1,1,1-Trifluoropropan-2-yl 5-methyl-2-((pyrazolo[1,5-a]pyrimidine-3-carboxamido)methyl)-benzofuran-7-carboxylate]: the EC50 in experiment [1] (setting [3]) and in experiment [2] (setting [4]) was 2.2 µM each time.

Turning to `Cc1cc(C(=O)OC(C)C)c2oc(CNC(=O)c3cnn4cccnc34)cc2c1` [EXAMPLE 273, Isopropyl 5-methyl-2-((pyrazolo[1,5-a]pyrimidine-3-carboxamido)methyl)-benzofuran-7-carboxylate], the figures for the concentration giving a half-maximal response (EC50) in experiment [1] (setting [3]) and in experiment [2] (setting [4]) were 0.75 µM and 0.7 µM, respectively.

Take `Cc1cc(C(=O)OC(CF)CF)c2oc(CNC(=O)c3cnn4cccnc34)cc2c1` [EXAMPLE 274, 1,3-Difluoropropan-2-yl 5-methyl-2-((pyrazolo[1,5-a]pyrimidine-3-carboxamido)methyl)-benzofuran-7-carboxylate]: the EC50 in experiment [1] (setting [3]) came out at 0.83 µM; in experiment [2] (setting [4]) it was 0.8 µM.

As for `Cc1cc(C(=O)OC2CC(F)(F)C2)c2oc(CNC(=O)c3cnn4cccnc34)cc2c1` [EXAMPLE 275, 3,3-Difluorocyclobutyl 5-methyl-2-((pyrazolo[1,5-a]pyrimidine-3-carboxamido)methyl)-benzofuran-7-carboxylate], the concentration for a half-maximal effect (EC50) in experiment [1] (setting [3]) was 0.72 µM; in experiment [2] (setting [4]), 0.94 µM.

With `Cc1cc(C(=O)O[C@H](C)C(F)(F)F)c2oc(C(C)NC(=O)c3cnn4cccnc34)cc2c1` (stereo partly drawn) [EXAMPLE 276, (R)-1,1,1-Trifluoropropan-2-yl 5-methyl-2-(1-(pyrazolo[1,5-a]pyrimidine-3-carboxamido)ethyl)benzofuran-7-carboxylate], the concentration giving a half-maximal response (EC50) is 3.4 µM in experiment [1] (setting [3]) and 3 µM in experiment [2] (setting [4]).
